Here are results for 15 compounds from publication PMC4170738 (RSC advances, 2014).

Data set [1] addresses T1, VirF (Shigella flexneri, UniProt P0A2T1). The data set is described as follows: cell-based. To be noted: for VirF IC50: E. coli strain SME4382, virB-lacZ fusion, 1 mM IPTG, 3 hours at 37°C, 6.2% DMSO. It counts as cell-based.
The subject of data set [2] is control strain SME3359 (lacZ reporter under synthetic promoter repressed by LacI). Kind of data set: Control strain dose-response assay. It counts as cell-based, E. coli. As to conditions: for Control strain IC50: E. coli strain SME3359, 1 mM IPTG, 3 hours at 37°C, 6.2% DMSO; for IC50: Escherichia coli, 3 h, read-out: Control strain IC50.
Data set [3] can be described thus: Aqueous stability in PBS pH 7.4 by RP HPLC/UV/HRMS. The data set is classed as physicochemical. As to conditions: 10 µM in PBS pH 7.4 (1% DMSO), room temperature; by the 0th time point, about 30 minutes elapsed.
In data set [4] the test system is VirF-dependent virulence genes (icsS, icsB, ipaB, virB). As to conditions: virB in S. flexneri; cited from earlier work.
For data set [5], the target named is T1, VirF. As to conditions: cell-based reporter gene assays with S. flexneri and E. coli; cited from earlier work. In general terms: Reporter assays use an easily measured gene product as a stand-in for the process of interest.
Data set [6] has as its target T1, VirF. To be noted: purified VirF, in vitro; cited from earlier work.
A short description of data set [7]: Stability towards thiol nucleophile glutathione. It counts as physicochemical. To be noted: 10 µM in PBS pH 7.4 (1% DMSO), 50 µM GSH, room temperature, up to 48 hours.
The subject of data set [8] is E. coli strains SME4382 and SME3359. Kind of data set: E. coli growth experiments. The data set is classed as cell-based. To be noted: VirF and control strains, TY broth, 44 µM compound, 6.2% DMSO, 37°C.

T1 sequence (P0A2T1 whole entry, the tested form may be a part): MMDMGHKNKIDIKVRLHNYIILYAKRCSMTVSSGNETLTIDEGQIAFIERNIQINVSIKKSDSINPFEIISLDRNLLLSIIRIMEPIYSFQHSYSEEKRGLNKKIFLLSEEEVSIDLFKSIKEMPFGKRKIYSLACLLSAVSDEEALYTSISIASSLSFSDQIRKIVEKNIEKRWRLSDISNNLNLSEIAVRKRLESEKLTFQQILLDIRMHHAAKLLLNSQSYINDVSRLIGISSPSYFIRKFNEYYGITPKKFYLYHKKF

For the compound `CCCCn1c2ccccc2c(=O)c2ccccc21` [Entry 15, 10-butylacridin-9(10H)-one], the “VirF IC50” value on VirF [1] is reported as “no inhibitory activity”. In addition, in data set [2], the “Control strain IC50” value is recorded as “no inhibitory activity”.

As for `CCCCN1C=C(c2ccc3ccccc3n2)C(c2ccccc2)c2ccccc21` (centres unmarked) [Entry 8, 1‧-butyl-4‧-phenyl-1‧,4‧-dihydro-2,3‧-biquinoline], at VirF [1], the “VirF IC50” value is on record as “No inhibition”. For the same compound, in data set [2], the “Control strain IC50” value is “No inhibition”.

With `CC(C)[n+]1cc(-c2ccc3ccccc3n2)cc2ccccc21.[I-]` [Entry 19, 1‧-isopropyl-[2,3‧-biquinolin]-1‧-ium iodide], the “Control strain IC50” value in data set [2] is “not inhibiting the control strain”.

As for `CCCCn1cc(-c2ccc3ccccc3n2)c2ccccc21` [Entry 12, 2-(1-butyl-1 H-indol-3-yl)quinoline], the “VirF IC50” value at VirF [1] is “no inhibitory activity”. Besides, in data set [2], the “Control strain IC50” value was “no inhibitory activity”.

Turning to “1‧-hexyl-[2,3‧-biquinolin]-1‧-ium bromide [Entry 21]”, the “Control strain IC50” value in data set [2] was “not inhibiting the control strain”.

Regarding `CCCCN1c2ccccc2C=C(c2ccc3ccccc3n2)C1C` (centres unmarked) [Entry 10, 1‧-butyl-2‧-methyl-1‧,2‧-dihydro-2,3‧-biquinoline], at VirF [1], the “VirF IC50” value is “No inhibition”. In addition, the “Control strain IC50” value in data set [2] is given as “No inhibition”.

Regarding `CCCCCCCCC[N+](CC)(CC)CC.[Br-]` [Entry 18, N,N,N-triethylnonan-1-aminium bromide], the “VirF IC50” value on VirF [1] is reported as “no inhibitory activity”. In addition, the “Control strain IC50” value in data set [2] is on record as “no inhibitory activity”.

One may read the IC50 as the point on the concentration scale where inhibition reaches its midpoint. For `CCCC[n+]1cc(-c2ccc3ccccc3c2)cc2ccccc21` [Entry 23, 1-butyl-3-(naphthalen-2-yl)quinolin-1-ium bromide], the half-maximal inhibitory concentration (IC50) at VirF [1] was 9 µM; in data set [2], more than 100 µM.

As for “1‧-propyl-[2,3‧-biquinolin]-1‧-ium bromide [Entry 20]”, in data set [2], the “Control strain IC50” value is on record as “not inhibiting the control strain”.

In the case of `CCCCN1C=C(c2ccc3ccccc3n2)C(C[N+](=O)[O-])c2ccccc21` (centres unmarked) [SE-1, 1‧-Butyl-4‧-(nitromethyl)-1‧,4’-dihydro-2,3‧-biquinoline], in data set [3], the “Aqueous stability (degradation to the corresponding quaternary salt)” value is “degraded completely”. Besides, the “Expression of VirF-dependent virulence genes (mRNA)” value in data set [4] is given as “reduced the expression”. For the same compound, the “Inhibition of transcription activation by VirF” value at VirF [5] is on record as “inhibitor”. Also, at VirF [6], the “Inhibition of DNA binding by VirF” value was “inhibitor”.

For `Clc1ccc(C[n+]2cc(-c3ccc4ccccc4n3)cc3ccccc32)cc1.[Br-]` [Entry 3, 1‧-(4-chlorobenzyl)-[2,3‧-biquinolin]-1‧-ium bromide], in data set [7], the GSH adduct formation result is listed as “no GSH adducts were observed”.

Regarding `C=CCCC[n+]1cc(-c2ccc3ccccc3n2)cc2ccccc21.[Br-]` [Entry 24, 1‧-(pent-4-en-1-yl)-[2,3‧-biquinolin]-1’-ium bromide], the “Control strain IC50” value in data set [2] is on record as “not inhibiting the control strain”.

`CCCCCCCCC[n+]1ccccc1.[Br-]` [Entry 17, 1-nonylpyridin-1-ium bromide]: on VirF [1], the IC50 was more than 50 µM and the “VirF IC50” value is recorded as “good to modest, non-specific activity”. In addition, in data set [2], the “Control strain IC50” value is reported as “good to modest, non-specific activity” and the IC50 is more than 50 µM.

With `CCCCN1C=C(c2cccc(C)n2)C(C[N+](=O)[O-])c2ccccc21` (centres unmarked) [Entry 6, 1-butyl-3-(6-methylpyridin-2-yl)-4-(nitromethyl)-1,4-dihydroquinoline], the IC50 (against VirF [1]; in data set [2]) was more than 100 µM in each case. In data set [8], the “Effect on bacterial growth” value was “inhibited the growth of the bacteria”.

For the compound `CCCCN1C=C(c2cccc(Cl)c2)C(C[N+](=O)[O-])c2ccccc21` (centres unmarked) [Entry 7, 1-butyl-3-(3-chlorophenyl)-4-(nitromethyl)-1,4-dihydroquinoline], the 50% inhibitory concentration (IC50) in data set [2] was more than 100 µM.
